Values quoted from earlier work, collected in patent publication US12168056B2, “Scintillator nanocrystal-containing compositions and methods for their use” (The Regents of the University of California, priority 2013, dated 2024).

Tested on: human glioblastoma (GBM) cells

With `COc1cccc2c1C(=O)c1c(O)c3c(c(O)c1C2=O)C[C@@](O)(C(=O)CO)C[C@@H]3O[C@H]1C[C@H](N)[C@H](O)[C@H](C)O1` [Dox, doxorubicin] as the compound, how does the “suppression of GBM cells in culture” value read?
Its value is “potently suppresses”.
